Laboratory results from PubChem BioAssay (NCI).
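Protocol summary: plate cells (96-well), add compound at 5 concentrations, incubate 48 h, interpolate endpoints linearly. GI50 marks 50% less growth. TGI is the concentration that stops growth completely.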

How the values were obtained:
Experiment in all cases: growth of human tumour cells (NCI), 48 h
U251 CNS = test system: U251 CNS
PC-3 prostate = test system: PC-3 prostate
SNB-19 CNS = test system: SNB-19 CNS
OVCAR-8 ovarian = test system: OVCAR-8 ovarian
LOX IMVI melanoma = test system: LOX IMVI melanoma
SK-MEL-5 melanoma = test system: SK-MEL-5 melanoma
HCT-15 colon = test system: HCT-15 colon
SF-268 CNS = test system: SF-268 CNS
SR leukemia = test system: SR leukemia
CAKI-1 renal = test system: CAKI-1 renal
MALME-3M melanoma = test system: MALME-3M melanoma
CCRF-CEM leukemia = test system: CCRF-CEM leukemia
BT-549 breast = test system: BT-549 breast
SF-539 CNS = test system: SF-539 CNS
786-0 renal = test system: 786-0 renal
HOP-62 NSCLC = test system: HOP-62 NSCLC
UACC-257 melanoma = test system: UACC-257 melanoma
SF-295 CNS = test system: SF-295 CNS
NCI-H226 lung = test system: NCI-H226 lung
TK-10 renal = test system: TK-10 renal
ACHN renal = test system: ACHN renal
SN12C renal = test system: SN12C renal
A549 NSCLC = test system: A549 NSCLC
MOLT-4 leukemia = test system: MOLT-4 leukemia
K-562 leukemia = test system: K-562 leukemia
HT29 colon = test system: HT29 colon
NCI/ADR-RES ovarian = test system: NCI/ADR-RES ovarian
OVCAR-4 ovarian = test system: OVCAR-4 ovarian
SW-620 colon = test system: SW-620 colon
COLO 205 colon = test system: COLO 205 colon
SNB-75 CNS = test system: SNB-75 CNS
NCI-H23 lung = test system: NCI-H23 lung
HOP-92 NSCLC = test system: HOP-92 NSCLC
MCF7 breast = test system: MCF7 breast
IGROV1 ovarian = test system: IGROV1 ovarian
SK-MEL-28 melanoma = test system: SK-MEL-28 melanoma
EKVX NSCLC = test system: EKVX NSCLC
NCI-H460 lung = test system: NCI-H460 lung
HCT-116 colon = test system: HCT-116 colon
OVCAR-5 ovarian = test system: OVCAR-5 ovarian
NCI-H522 lung = test system: NCI-H522 lung
M14 melanoma = test system: M14 melanoma
KM12 colon = test system: KM12 colon
RPMI-8226 leukemia = test system: RPMI-8226 leukemia
SK-MEL-2 melanoma = test system: SK-MEL-2 melanoma
HL-60(TB) leukemia = test system: HL-60(TB) leukemia
MDA-MB-231 breast = test system: MDA-MB-231 breast
MDA-MB-435 = test system: MDA-MB-435
HCC-2998 colon = test system: HCC-2998 colon
DU-145 prostate = test system: DU-145 prostate
RXF 393 renal = test system: RXF 393 renal
T-47D breast = test system: T-47D breast
OVCAR-3 ovarian = test system: OVCAR-3 ovarian
UACC-62 melanoma = test system: UACC-62 melanoma
SK-OV-3 ovarian = test system: SK-OV-3 ovarian
UO-31 renal = test system: UO-31 renal
A498 renal = test system: A498 renal
HS 578T breast = test system: HS 578T breast

Compound: Cn1c(=O)cc(N2CCCC2)[nH]c1=O
- TGI (U251 CNS): > 100 µM
- TGI (PC-3 prostate): > 100 µM
- TGI (SNB-19 CNS): > 100 µM
- TGI (OVCAR-8 ovarian): > 100 µM
- TGI (LOX IMVI melanoma): > 100 µM
- TGI (SK-MEL-5 melanoma): > 100 µM
- TGI (HCT-15 colon): > 100 µM
- TGI (SF-268 CNS): > 100 µM
- TGI (SR leukemia): > 100 µM
- TGI (CAKI-1 renal): > 100 µM
- TGI (MALME-3M melanoma): > 100 µM
- TGI (CCRF-CEM leukemia): > 100 µM
- TGI (BT-549 breast): > 100 µM
- TGI (SF-539 CNS): > 100 µM
- TGI (786-0 renal): > 100 µM
- TGI (HOP-62 NSCLC): > 100 µM
- TGI (UACC-257 melanoma): > 100 µM
- TGI (SF-295 CNS): > 100 µM
- TGI (NCI-H226 lung): > 100 µM
- TGI (TK-10 renal): > 100 µM
- TGI (ACHN renal): > 100 µM
- TGI (SN12C renal): > 100 µM
- TGI (A549 NSCLC): > 100 µM
- TGI (MOLT-4 leukemia): > 100 µM
- TGI (K-562 leukemia): > 100 µM
- TGI (HT29 colon): > 100 µM
- TGI (NCI/ADR-RES ovarian): > 100 µM
- TGI (OVCAR-4 ovarian): > 100 µM
- TGI (SW-620 colon): > 100 µM
- TGI (COLO 205 colon): > 100 µM
- TGI (SNB-75 CNS): > 100 µM
- TGI (NCI-H23 lung): > 100 µM
- TGI (HOP-92 NSCLC): > 100 µM
- TGI (MCF7 breast): > 100 µM
- TGI (IGROV1 ovarian): > 100 µM
- TGI (SK-MEL-28 melanoma): > 100 µM
- TGI (EKVX NSCLC): > 100 µM
- TGI (NCI-H460 lung): > 100 µM
- TGI (HCT-116 colon): > 100 µM
- TGI (OVCAR-5 ovarian): > 100 µM
- TGI (NCI-H522 lung): > 100 µM
- TGI (M14 melanoma): > 100 µM
- TGI (KM12 colon): > 100 µM
- TGI (RPMI-8226 leukemia): > 100 µM
- TGI (SK-MEL-2 melanoma): > 100 µM
- TGI (HL-60(TB) leukemia): > 100 µM
- TGI (MDA-MB-231 breast): > 100 µM
- TGI (MDA-MB-435): > 100 µM
- TGI (HCC-2998 colon): > 100 µM
- TGI (DU-145 prostate): > 100 µM

Compound: COc1ccc2nc3ccccc3c(NCc3ccc(C)cc3)c2c1
- GI50 (RXF 393 renal): 1.32 µM
- TGI (RXF 393 renal): 2.83 µM
- GI50 (U251 CNS): 1.84 µM
- TGI (U251 CNS): 3.69 µM
- GI50 (PC-3 prostate): 1.64 µM
- TGI (PC-3 prostate): 4.49 µM
- GI50 (SNB-19 CNS): 2.97 µM
- TGI (SNB-19 CNS): 11.4 µM
- GI50 (OVCAR-8 ovarian): 2.24 µM
- TGI (OVCAR-8 ovarian): 7.27 µM
- GI50 (LOX IMVI melanoma): 1.54 µM
- TGI (LOX IMVI melanoma): 2.95 µM
- GI50 (SK-MEL-5 melanoma): 1.77 µM
- TGI (SK-MEL-5 melanoma): 3.19 µM
- GI50 (HCT-15 colon): 1.73 µM
- TGI (HCT-15 colon): 4.76 µM
- GI50 (SF-268 CNS): 2.27 µM
- TGI (SF-268 CNS): 5.44 µM
- GI50 (SR leukemia): 1.81 µM
- TGI (SR leukemia): 6.04 µM
- GI50 (CAKI-1 renal): 1.59 µM
- TGI (CAKI-1 renal): 2.98 µM
- GI50 (MALME-3M melanoma): 1.81 µM
- TGI (MALME-3M melanoma): 3.29 µM
- GI50 (CCRF-CEM leukemia): 2.37 µM
- TGI (CCRF-CEM leukemia): 11.4 µM
- GI50 (BT-549 breast): 2.01 µM
- TGI (BT-549 breast): 4.7 µM
- GI50 (SF-539 CNS): 1.68 µM
- TGI (SF-539 CNS): 3.18 µM
- GI50 (HOP-62 NSCLC): 1.78 µM
- TGI (HOP-62 NSCLC): 3.7 µM
- GI50 (UACC-257 melanoma): 2.12 µM
- TGI (UACC-257 melanoma): 5 µM
- GI50 (SF-295 CNS): 1.34 µM
- TGI (SF-295 CNS): 2.74 µM
- GI50 (T-47D breast): 1.89 µM
- TGI (T-47D breast): 4.42 µM
- GI50 (OVCAR-3 ovarian): 2 µM
- TGI (OVCAR-3 ovarian): 4.36 µM
- GI50 (NCI-H226 lung): 1.97 µM
- TGI (NCI-H226 lung): 5.12 µM
- GI50 (TK-10 renal): 1.97 µM
- TGI (TK-10 renal): 4.15 µM
- GI50 (ACHN renal): 1.58 µM
- TGI (ACHN renal): 3.03 µM
- GI50 (SN12C renal): 1.64 µM
- TGI (SN12C renal): 3.78 µM
- GI50 (A549 NSCLC): 1.96 µM
- TGI (A549 NSCLC): 4.71 µM
- GI50 (MOLT-4 leukemia): 3.04 µM
- TGI (MOLT-4 leukemia): 11.5 µM
- GI50 (K-562 leukemia): 1.61 µM
- TGI (K-562 leukemia): > 100 µM
- GI50 (HT29 colon): 1.43 µM
- TGI (HT29 colon): 7.16 µM
- GI50 (NCI/ADR-RES ovarian): 1.79 µM
- TGI (NCI/ADR-RES ovarian): 4.98 µM
- GI50 (OVCAR-4 ovarian): 2.25 µM
- TGI (OVCAR-4 ovarian): 6.51 µM
- GI50 (UACC-62 melanoma): 1.64 µM
- TGI (UACC-62 melanoma): 3.26 µM
- GI50 (SW-620 colon): 1.57 µM
- TGI (SW-620 colon): 4.24 µM
- GI50 (COLO 205 colon): 1.65 µM
- TGI (COLO 205 colon): 3.78 µM
- GI50 (SNB-75 CNS): 1.49 µM
- TGI (SNB-75 CNS): 2.85 µM
- GI50 (NCI-H23 lung): 1.68 µM
- TGI (NCI-H23 lung): 4.26 µM
- GI50 (HOP-92 NSCLC): 1.27 µM
- TGI (HOP-92 NSCLC): 3.12 µM
- GI50 (IGROV1 ovarian): 2.19 µM
- TGI (IGROV1 ovarian): 6.34 µM
- GI50 (SK-MEL-28 melanoma): 1.75 µM
- TGI (SK-MEL-28 melanoma): 3.29 µM
- GI50 (EKVX NSCLC): 2.5 µM
- TGI (EKVX NSCLC): 7.94 µM
- GI50 (NCI-H460 lung): 1.97 µM
- TGI (NCI-H460 lung): 4.15 µM
- GI50 (HCT-116 colon): 0.848 µM
- TGI (HCT-116 colon): 6.24 µM
- GI50 (OVCAR-5 ovarian): 2.1 µM
- TGI (OVCAR-5 ovarian): 6.02 µM
- GI50 (SK-OV-3 ovarian): 2.58 µM
- TGI (SK-OV-3 ovarian): 8.41 µM
- GI50 (UO-31 renal): 1.28 µM
- TGI (UO-31 renal): 2.65 µM
- GI50 (NCI-H522 lung): 1.94 µM
- TGI (NCI-H522 lung): 4.67 µM
- GI50 (M14 melanoma): 1.69 µM
- TGI (M14 melanoma): 3.61 µM
- GI50 (KM12 colon): 2.6 µM
- TGI (KM12 colon): 8.49 µM
- GI50 (SK-MEL-2 melanoma): 1.85 µM
- TGI (SK-MEL-2 melanoma): 3.68 µM
- GI50 (A498 renal): 1.65 µM
- TGI (A498 renal): 3.05 µM
- GI50 (HL-60(TB) leukemia): 2.03 µM
- TGI (HL-60(TB) leukemia): 4.58 µM
- GI50 (MDA-MB-231 breast): 1.76 µM
- TGI (MDA-MB-231 breast): 4.12 µM
- GI50 (MDA-MB-435): 1.44 µM
- TGI (MDA-MB-435): 2.89 µM
- GI50 (HCC-2998 colon): 1.73 µM
- TGI (HCC-2998 colon): 3.26 µM
- GI50 (DU-145 prostate): 2.64 µM
- TGI (DU-145 prostate): 7.68 µM

Compound: Cc1ccc(S(=O)(=O)OC[C@@]2(C)CC[C@]3(C)CC[C@]4(C)C(=CC[C@@H]5[C@@]6(C)CCCNC(C)(C)[C@@H]6CC[C@]54C)[C@@H]3C2)cc1
- GI50 (RXF 393 renal): 1.63 µM
- TGI (RXF 393 renal): 3.33 µM
- GI50 (HS 578T breast): 1.86 µM
- TGI (HS 578T breast): 4 µM
- GI50 (CAKI-1 renal): 1.6 µM
- TGI (CAKI-1 renal): 2.94 µM
- GI50 (NCI/ADR-RES ovarian): 2.02 µM
- TGI (NCI/ADR-RES ovarian): 4.87 µM
- GI50 (UACC-62 melanoma): 1.83 µM
- TGI (UACC-62 melanoma): 3.32 µM
- GI50 (SW-620 colon): 1.32 µM
- TGI (SW-620 colon): 2.82 µM
- GI50 (SNB-75 CNS): 1.59 µM
- TGI (SNB-75 CNS): 3.1 µM
- GI50 (SK-MEL-28 melanoma): 1.75 µM
- TGI (SK-MEL-28 melanoma): 3.21 µM
- GI50 (NCI-H460 lung): 1.36 µM
- TGI (NCI-H460 lung): 2.85 µM
- GI50 (OVCAR-5 ovarian): 1.74 µM
- TGI (OVCAR-5 ovarian): 3.2 µM
- GI50 (UO-31 renal): 1.39 µM
- TGI (UO-31 renal): 2.87 µM
- GI50 (KM12 colon): 1.82 µM
- TGI (KM12 colon): 3.43 µM
- GI50 (SK-MEL-2 melanoma): 1.82 µM
- TGI (SK-MEL-2 melanoma): 3.34 µM
- GI50 (A498 renal): 1.66 µM
- TGI (A498 renal): 3.16 µM
- GI50 (DU-145 prostate): 1.68 µM
- TGI (DU-145 prostate): 3.13 µM
